Test results: patent US20230085307A1, “PYRIDAZINONE COMPOUND AND HERBICIDE” (NISSAN CHEMICAL CORPORATION, priority 2019, published 2023)

How the values were obtained:
Japanese bulrush = assay: Test Example 1: herbicidal activity, application before weed generation under submerged conditions (Table 16, symbol B); assay type: in vivo, Japanese bulrush (Schoenoplectus juncoides); conditions: amount of applied herbicide 320 g/ha
Outline: (§1)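 Alluvial soil was flooded to 4 cm depth, weed seeds were sown mixed and 2.5-leaf rice seedlings were transplanted. On sowing day, the compound's emulsion, diluted in water to a set dose, was applied to the water surface. Plants grew at 25–30 °C and were scored 0–5 after three weeks.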

barnyard grass [1] = assay: Test Example 5: herbicidal effect by foliage application, plastic box (Table 20, symbol H); assay type: in vivo, barnyard grass (Echinochloa crus-galli); conditions: foliage application, 320 g/ha, three weeks after application
Outline: (§2)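 Plants sown in sterilized diluvial soil and grown 14 days in a greenhouse at 25° C to 30° C, then sprayed on the foliage with the compound's emulsion diluted in water to a predetermined herbicide amount. Injury to weeds and crops scored three weeks after application on a visual rating scale.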

wild oat [2] = assay: Test Example 4: herbicidal effect by soil treatment (Table 19, symbol I); assay type: in vivo, wild oat (Avena fatua); conditions: amount of applied herbicide 320 g/ha
Outline: (§3)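 Three weeks of greenhouse growth at 25° C. to 30° C. followed a uniform surface spray of water-diluted emulsion at a predetermined herbicide amount. Seeds had been sown beforehand under about 1.5 cm of sterilized diluvial soil. Grading followed criteria set out in an earlier test.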

redroot pigweed = assay: Test Example 4: herbicidal effect by soil treatment (Table 19, symbol N); assay type: in vivo, redroot pigweed (Amaranthus retroflexus); conditions: amount of applied herbicide 320 g/ha
Outline: as §3

late watergrass = assay: Test Example 1: herbicidal activity, application before weed generation under submerged conditions (Table 16, symbol A); assay type: in vivo, late watergrass (Echinochloa oryzicola); conditions: amount of applied herbicide 320 g/ha
Outline: as §1

chickweed = assay: Test Example 4: herbicidal effect by soil treatment (Table 19, symbol P); assay type: in vivo, common chickweed (Stellaria media); conditions: amount of applied herbicide 320 g/ha
Outline: as §3

persian speedwell [3] = assay: Test Example 5: herbicidal effect by foliage application, plastic box (Table 20, symbol R); assay type: in vivo, Persian speedwell (Veronica persica); conditions: foliage application, 320 g/ha, three weeks after application
Outline: as §2

rice flat sedge = assay: Test Example 3: herbicidal effect by foliage application, Wagner pot (Table 18, symbol E); assay type: in vivo, rice flat sedge (Cyperus iria); conditions: 320 g/ha
Outline: (§4)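 Plants were sown in alluvial soil held under 0.1–0.5 cm standing water and grown 14 days in a greenhouse at 25–30 °C. An emulsifiable formulation, water-diluted to the set dose, was then sprayed onto the foliage, and effects were scored three weeks later using previously defined criteria.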

southern crabgrass [4] = assay: Test Example 5: herbicidal effect by foliage application, plastic box (Table 20, symbol F); assay type: in vivo, southern crabgrass (Digitaria ciliaris); conditions: foliage application, 320 g/ha, three weeks after application
Outline: as §2

windgrass [5] = assay: Test Example 4: herbicidal effect by soil treatment (Table 19, symbol L); assay type: in vivo, windgrass (Apera spica-venti); conditions: amount of applied herbicide 320 g/ha
Outline: as §3

velvetleaf [6] = assay: Test Example 5: herbicidal effect by foliage application, plastic box (Table 20, symbol M); assay type: in vivo, velvetleaf (Abutilon theophrasti); conditions: foliage application, 320 g/ha, three weeks after application
Outline: as §2

lambsquarters [7] = assay: Test Example 4: herbicidal effect by soil treatment (Table 19, symbol O); assay type: in vivo, lambsquarters (Chenopodium album); conditions: amount of applied herbicide 320 g/ha
Outline: as §3

green foxtail [8] = assay: Test Example 5: herbicidal effect by foliage application, plastic box (Table 20, symbol G); assay type: in vivo, green foxtail (Setaria viridis); conditions: foliage application, 320 g/ha, three weeks after application
Outline: as §2

blackgrass [9] = assay: Test Example 5: herbicidal effect by foliage application, plastic box (Table 20, symbol J); assay type: in vivo, blackgrass (Alopecurus myosuroides); conditions: foliage application, 320 g/ha, three weeks after application
Outline: as §2

windgrass [10] = assay: Test Example 5: herbicidal effect by foliage application, plastic box (Table 20, symbol L); assay type: in vivo, windgrass (Apera spica-venti); conditions: foliage application, 320 g/ha, three weeks after application
Outline: as §2

persian speedwell [11] = assay: Test Example 4: herbicidal effect by soil treatment (Table 19, symbol R); assay type: in vivo, Persian speedwell (Veronica persica); conditions: amount of applied herbicide 320 g/ha
Outline: as §3

velvetleaf [12] = assay: Test Example 4: herbicidal effect by soil treatment (Table 19, symbol M); assay type: in vivo, velvetleaf (Abutilon theophrasti); conditions: amount of applied herbicide 320 g/ha
Outline: as §3

barnyard grass [13] = assay: Test Example 3: herbicidal effect by foliage application, Wagner pot (Table 18, symbol H); assay type: in vivo, barnyard grass (Echinochloa crus-galli); conditions: 320 g/ha
Outline: as §4

Italian ryegrass [14] = assay: Test Example 5: herbicidal effect by foliage application, plastic box (Table 20, symbol K); assay type: in vivo, Italian ryegrass (Lolium multiflorum); conditions: foliage application, 320 g/ha, three weeks after application
Outline: as §2

blackgrass [15] = assay: Test Example 4: herbicidal effect by soil treatment (Table 19, symbol J); assay type: in vivo, blackgrass (Alopecurus myosuroides); conditions: amount of applied herbicide 320 g/ha
Outline: as §3

lambsquarters [16] = assay: Test Example 5: herbicidal effect by foliage application, plastic box (Table 20, symbol O); assay type: in vivo, lambsquarters (Chenopodium album); conditions: foliage application, 320 g/ha, three weeks after application
Outline: as §2

Chinese sprangletop = assay: Test Example 3: herbicidal effect by foliage application, Wagner pot (Table 18, symbol D); assay type: in vivo, chinese sprangletop (Leptochloa chinensis); conditions: 320 g/ha
Outline: as §4

barnyard grass [17] = assay: Test Example 4: herbicidal effect by soil treatment (Table 19, symbol H); assay type: in vivo, barnyard grass (Echinochloa crus-galli); conditions: amount of applied herbicide 320 g/ha
Outline: as §3

wild oat [18] = assay: Test Example 5: herbicidal effect by foliage application, plastic box (Table 20, symbol I); assay type: in vivo, wild oat (Avena fatua); conditions: foliage application, 320 g/ha, three weeks after application
Outline: as §2

oval-leafed pondweed = assay: Test Example 1: herbicidal activity, application before weed generation under submerged conditions (Table 16, symbol C); assay type: in vivo, oval-leafed pondweed (Monochoria vaginalis); conditions: amount of applied herbicide 320 g/ha
Outline: as §1

Italian ryegrass [19] = assay: Test Example 4: herbicidal effect by soil treatment (Table 19, symbol K); assay type: in vivo, Italian ryegrass (Lolium multiflorum); conditions: amount of applied herbicide 320 g/ha
Outline: as §3

green foxtail [20] = assay: Test Example 4: herbicidal effect by soil treatment (Table 19, symbol G); assay type: in vivo, green foxtail (Setaria viridis); conditions: amount of applied herbicide 320 g/ha
Outline: as §3

southern crabgrass [21] = assay: Test Example 4: herbicidal effect by soil treatment (Table 19, symbol F); assay type: in vivo, southern crabgrass (Digitaria ciliaris); conditions: amount of applied herbicide 320 g/ha
Outline: as §3

CCCC(=O)Oc1c(C)nn(C)c(=O)c1-c1c(-c2ccccc2OCC)sc2cc(OC)c(Cl)cc12 [5-073]
Herbicidal effect, B: Japanese bulrush (Japanese bulrush): 4 (Herbicidal rate of 70% or more and less than 90%) | herbicidal effect on barnyard grass (H) (barnyard grass [1]): 5 (Herbicidal rate of 90% or more (almost completely withered)) | I: wild oat, herbicidal effect grade (wild oat [2]): 0 (Herbicidal rate of 5% or less (almost no effect)) | N: redroot pigweed, herbicidal effect grade (redroot pigweed): 1 (Herbicidal rate of 5% or more and less than 20%) | Herbicidal effect, A: late watergrass (late watergrass): 5 (Herbicidal rate of 90% or more (almost completely withered)) | P: chickweed, herbicidal effect grade (chickweed): 0 (Herbicidal rate of 5% or less (almost no effect)) | herbicidal effect on persian speedwell (R) (persian speedwell [3]): 0 (Herbicidal rate of 5% or less (almost no effect)) | herbicidal effect on rice flat sedge (E) (rice flat sedge): 0 (Herbicidal rate of 5% or less (almost no effect)) | herbicidal effect on southern crabgrass (F) (southern crabgrass [4]): 5 (Herbicidal rate of 90% or more (almost completely withered)) | L: windgrass, herbicidal effect grade (windgrass [5]): 0 (Herbicidal rate of 5% or less (almost no effect)) | herbicidal effect on velvetleaf (M) (velvetleaf [6]): 4 (Herbicidal rate of 70% or more and less than 90%) | O: lambsquarters, herbicidal effect grade (lambsquarters [7]): 0 (Herbicidal rate of 5% or less (almost no effect)) | herbicidal effect on green foxtail (G) (green foxtail [8]): 5 (Herbicidal rate of 90% or more (almost completely withered)) | herbicidal effect on blackgrass (J) (blackgrass [9]): 0 (Herbicidal rate of 5% or less (almost no effect)) | herbicidal effect on windgrass (L) (windgrass [10]): 3 (Herbicidal rate of 40% or more and less than 70%) | R: persian speedwell, herbicidal effect grade (persian speedwell [11]): 0 (Herbicidal rate of 5% or less (almost no effect)) | M: velvetleaf, herbicidal effect grade (velvetleaf [12]): 0 (Herbicidal rate of 5% or less (almost no effect)) | herbicidal effect on barnyard grass (H) (barnyard grass [13]): 5 (Herbicidal rate of 90% or more (almost completely withered)) | herbicidal effect on Italian ryegrass (K) (Italian ryegrass [14]): 0 (Herbicidal rate of 5% or less (almost no effect)) | J: blackgrass, herbicidal effect grade (blackgrass [15]): 0 (Herbicidal rate of 5% or less (almost no effect)) | herbicidal effect on lambsquarters (O) (lambsquarters [16]): 4 (Herbicidal rate of 70% or more and less than 90%) | herbicidal effect on Chinese sprangletop (D) (Chinese sprangletop): 0 (Herbicidal rate of 5% or less (almost no effect)) | H: barnyard grass, herbicidal effect grade (barnyard grass [17]): 0 (Herbicidal rate of 5% or less (almost no effect)) | herbicidal effect on wild oat (I) (wild oat [18]): 0 (Herbicidal rate of 5% or less (almost no effect)) | Herbicidal effect, C: oval-leafed pondweed (oval-leafed pondweed): 4 (Herbicidal rate of 70% or more and less than 90%) | K: Italian ryegrass, herbicidal effect grade (Italian ryegrass [19]): 0 (Herbicidal rate of 5% or less (almost no effect)) | G: green foxtail, herbicidal effect grade (green foxtail [20]): 2 (Herbicidal rate of 20% or more and less than 40%) | F: southern crabgrass, herbicidal effect grade (southern crabgrass [21]): 0 (Herbicidal rate of 5% or less (almost no effect))

CCOc1cc(F)ccc1-c1sc2cc(Cl)c(Cl)cc2c1-c1c(O)c(C)nn(C)c1=O [5-053]
Herbicidal effect, B: Japanese bulrush (Japanese bulrush): 3 (Herbicidal rate of 40% or more and less than 70%) | herbicidal effect on barnyard grass (H) (barnyard grass [1]): 1 (Herbicidal rate of 5% or more and less than 20%) | I: wild oat, herbicidal effect grade (wild oat [2]): 0 (Herbicidal rate of 5% or less (almost no effect)) | N: redroot pigweed, herbicidal effect grade (redroot pigweed): 3 (Herbicidal rate of 40% or more and less than 70%) | Herbicidal effect, A: late watergrass (late watergrass): 0 (Herbicidal rate of 5% or less (almost no effect)) | P: chickweed, herbicidal effect grade (chickweed): 0 (Herbicidal rate of 5% or less (almost no effect)) | herbicidal effect on persian speedwell (R) (persian speedwell [3]): 5 (Herbicidal rate of 90% or more (almost completely withered)) | herbicidal effect on rice flat sedge (E) (rice flat sedge): 5 (Herbicidal rate of 90% or more (almost completely withered)) | herbicidal effect on southern crabgrass (F) (southern crabgrass [4]): 3 (Herbicidal rate of 40% or more and less than 70%) | L: windgrass, herbicidal effect grade (windgrass [5]): 0 (Herbicidal rate of 5% or less (almost no effect)) | herbicidal effect on velvetleaf (M) (velvetleaf [6]): 5 (Herbicidal rate of 90% or more (almost completely withered)) | O: lambsquarters, herbicidal effect grade (lambsquarters [7]): 0 (Herbicidal rate of 5% or less (almost no effect)) | herbicidal effect on green foxtail (G) (green foxtail [8]): 4 (Herbicidal rate of 70% or more and less than 90%) | herbicidal effect on blackgrass (J) (blackgrass [9]): 0 (Herbicidal rate of 5% or less (almost no effect)) | herbicidal effect on windgrass (L) (windgrass [10]): 3 (Herbicidal rate of 40% or more and less than 70%) | R: persian speedwell, herbicidal effect grade (persian speedwell [11]): 1 (Herbicidal rate of 5% or more and less than 20%) | M: velvetleaf, herbicidal effect grade (velvetleaf [12]): 0 (Herbicidal rate of 5% or less (almost no effect)) | herbicidal effect on barnyard grass (H) (barnyard grass [13]): 3 (Herbicidal rate of 40% or more and less than 70%) | herbicidal effect on Italian ryegrass (K) (Italian ryegrass [14]): 0 (Herbicidal rate of 5% or less (almost no effect)) | J: blackgrass, herbicidal effect grade (blackgrass [15]): 0 (Herbicidal rate of 5% or less (almost no effect)) | herbicidal effect on lambsquarters (O) (lambsquarters [16]): 3 (Herbicidal rate of 40% or more and less than 70%) | herbicidal effect on Chinese sprangletop (D) (Chinese sprangletop): 3 (Herbicidal rate of 40% or more and less than 70%) | H: barnyard grass, herbicidal effect grade (barnyard grass [17]): 0 (Herbicidal rate of 5% or less (almost no effect)) | herbicidal effect on wild oat (I) (wild oat [18]): 0 (Herbicidal rate of 5% or less (almost no effect)) | Herbicidal effect, C: oval-leafed pondweed (oval-leafed pondweed): 0 (Herbicidal rate of 5% or less (almost no effect)) | K: Italian ryegrass, herbicidal effect grade (Italian ryegrass [19]): 0 (Herbicidal rate of 5% or less (almost no effect)) | G: green foxtail, herbicidal effect grade (green foxtail [20]): 0 (Herbicidal rate of 5% or less (almost no effect)) | F: southern crabgrass, herbicidal effect grade (southern crabgrass [21]): 0 (Herbicidal rate of 5% or less (almost no effect))
